In patent publication US20180042223A1, “COMPOSITION COMPRISING A HYDROGEL AND PESTICIDES” (priority 2014, published 2018):

System: spider mite (Tetranychus uricae)
Assay: Effectiveness of pesticide with NovioHelix hydrogel adjuvant: dead percentage of spider mites on paprika plants
Type: in vivo
Conditions: day 5 after treatment; infected paprika plants; applied till run off; Noviohelix 3 mg/mL where used
Protocol: Paprika plants infected with spider mite (Tetranychus uricae) were used as experiment samples. All paprika (±20cm) were artificially infected with spiders 5 days before the experiments. The insecticide Spiromesifen (Spiromesifen, 240 g/l, Oberon) was used to against spiders. Noviohelix (3 mg/mL) was used as an adjuvant. All samples were applied with pesticide until ‘till run off’ (the first droplet of a composition fall off the leave). The effectiveness of Spiromesifen either with or without NovioHelix was determined based on the dead percentage of spiders after treatment. The spiders both in mature and immature phases were counted before and at day 5 after experiment.

Question: For Cc1cc(C)c(C2=C(OC(=O)CC(C)(C)C)C3(CCCC3)OC2=O)c(C)c1 [Spiromesifen], which “% dead (dead percentage of spider)” value is on record?
Answer: 84.8%
